We go through four molecules from ChEMBL document CHEMBL5223135, “Guanidine-based β amyloid precursor protein cleavage enzyme 1 (BACE-1) inhibitors for the Alzheimer's disease (AD): A review” (Bioorg Med Chem, 2022).

Data set [1] in a line: Permeability in human Caco-2 cells. The conditions noted are these: read-out: permeability. The data set is classed as ADME, cell-based. Background: Caco-2 monolayers are a common model of the intestinal barrier.
A short description of data set [2]: n-Octanol/water partition coefficient, logP of the compound. The data set is classed as physicochemical.
Data set [3] in a line: Aqueous solubility, logS of the compound. The data set is classed as physicochemical. The conditions noted are these: buffer.

As to `Cn1c(N/N=C/c2cccc(Cl)c2Cl)nc2ccccc2c1=O`, the Papp in data set [1] turned out to be 0.57 ×10⁻⁶ cm/s.

For the molecule `O=[N+]([O-])c1ccc(-n2cc(COc3ccc(/C=N/Nc4nnc(-c5ccccc5)c(-c5ccccc5)n4)cc3)nn2)cc1`, the Papp in data set [1] was determined as 0.53 ×10⁻⁶ cm/s.

As for `C(=N\Nc1nnc(-c2cccs2)c(-c2cccs2)n1)/c1cc2ccccc2[nH]1`, in data set [1], the Papp came to 0.53 ×10⁻⁶ cm/s.

Regarding `N=C(Nc1cnc(F)c(F)c1)Nc1cnc(F)c(F)c1`, in data set [2], the logP (commonly the decadic logarithm of the partition coefficient of the neutral form, usually between octanol and water) came out at 1.76. In addition, in data set [3], the logS0 is on record as -2.73.
